Results published in ChEMBL document CHEMBL1201862, “PubChem BioAssay data set” (2004).
Structures can show the parent of a compound that is named as a salt.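 Briefly, cells in 96-well plates were exposed to five compound concentrations for 48 h, and endpoints were estimated by linear interpolation. GI50 is the concentration that inhibits growth by half.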 Activity calls are given as the source filed them. Cut-off read from the data, not from the text of the source: active = GI50 up to about 1.1 µM and inactive = higher.

Columns and labels:
Experiment in all cases: NCI anticancer screen, dose series, 48 h
CCRF-CEM = test system: CCRF-CEM
HOP-92 = test system: HOP-92
M14 = test system: M14
HL-60 = test system: HL-60
KM12 = test system: KM12
CAKI-1 = test system: CAKI-1
LOX IMVI = test system: LOX IMVI
MDA-MB-231 = test system: MDA-MB-231
TK-10 = test system: TK-10
MDA-MB-435 = test system: MDA-MB-435
UACC-62 = test system: UACC-62
NCI/ADR-RES = test system: NCI/ADR-RES
EKVX = test system: EKVX
SK-OV-3 = test system: SK-OV-3
IGROV-1 = test system: IGROV-1
HT-29 = test system: HT-29
HCT-116 = test system: HCT-116
SW-620 = test system: SW-620
NCI-H460 = test system: NCI-H460
K562 = test system: K562
786-0 = test system: 786-0
COLO 205 = test system: COLO 205
HCT-15 = test system: HCT-15
MCF7 = test system: MCF7
SK-MEL-28 = test system: SK-MEL-28
SF-295 = test system: SF-295
OVCAR-8 = test system: OVCAR-8
SR = test system: SR
U-251 = test system: U-251
SK-MEL-2 = test system: SK-MEL-2
ACHN = test system: ACHN
OVCAR-4 = test system: OVCAR-4
MOLT-4 = test system: MOLT-4
A549 = test system: A549
OVCAR-5 = test system: OVCAR-5
SNB-19 = test system: SNB-19
SNB-75 = test system: SNB-75
OVCAR-3 = test system: OVCAR-3
SF-539 = test system: SF-539
UACC-257 = test system: UACC-257
SN12C = test system: SN12C
RXF 393 = test system: RXF 393
A498 = test system: A498
DU-145 = test system: DU-145
SK-MEL-5 = test system: SK-MEL-5
NCI-H226 = test system: NCI-H226
UO-31 = test system: UO-31
MDA-N = test system: MDA-N
RPMI-8226 = test system: RPMI-8226
SF-268 = test system: SF-268
NCI-H522 = test system: NCI-H522
NCI-H23 = test system: NCI-H23
PC-3 = test system: PC-3
Malme-3M = test system: Malme-3M
HCC 2998 = test system: HCC 2998
T47D = test system: T47D
HOP-62 = test system: HOP-62

O=c1[nH]c(=O)n(COCCO)c2ccc(Br)cc12
GI50 (CCRF-CEM): > 100 µM (inactive)
GI50 (HOP-92): > 100 µM (inactive)
GI50 (M14): > 100 µM (inactive)
GI50 (HL-60): > 100 µM (inactive)
GI50 (KM12): > 100 µM (inactive)
GI50 (CAKI-1): > 100 µM (inactive)
GI50 (LOX IMVI): > 100 µM (inactive)
GI50 (MDA-MB-231): > 100 µM (inactive)
GI50 (TK-10): > 100 µM (inactive)
GI50 (MDA-MB-435): > 100 µM (inactive)
GI50 (UACC-62): > 100 µM (inactive)
GI50 (NCI/ADR-RES): > 100 µM (inactive)
GI50 (EKVX): 92.3 µM (inactive)
GI50 (SK-OV-3): > 100 µM (inactive)
GI50 (IGROV-1): 77.1 µM (inactive)
GI50 (HT-29): > 100 µM (inactive)
GI50 (HCT-116): > 100 µM (inactive)
GI50 (SW-620): > 100 µM (inactive)
GI50 (NCI-H460): > 100 µM (inactive)
GI50 (K562): > 100 µM (inactive)
GI50 (786-0): > 100 µM (inactive)
GI50 (COLO 205): > 100 µM (inactive)
GI50 (HCT-15): 45.9 µM
GI50 (MCF7): > 100 µM (inactive)
GI50 (SK-MEL-28): > 100 µM (inactive)
GI50 (SF-295): > 100 µM (inactive)
GI50 (OVCAR-8): > 100 µM (inactive)
GI50 (SR): 80.4 µM (inactive)
GI50 (U-251): > 100 µM (inactive)
GI50 (SK-MEL-2): > 100 µM (inactive)
GI50 (ACHN): > 100 µM (inactive)
GI50 (OVCAR-4): > 100 µM (inactive)
GI50 (MOLT-4): > 100 µM (inactive)
GI50 (A549): > 100 µM (inactive)
GI50 (OVCAR-5): > 100 µM (inactive)
GI50 (SNB-19): 50.6 µM (inactive)
GI50 (SNB-75): 39 µM (inactive)
GI50 (OVCAR-3): > 100 µM (inactive)
GI50 (SF-539): > 100 µM (inactive)
GI50 (UACC-257): > 100 µM (inactive)
GI50 (SN12C): > 100 µM (inactive)
GI50 (RXF 393): > 100 µM (inactive)
GI50 (A498): > 100 µM (inactive)
GI50 (DU-145): > 100 µM (inactive)
GI50 (SK-MEL-5): > 100 µM (inactive)
GI50 (NCI-H226): 25.2 µM (inactive)
GI50 (UO-31): 74.3 µM (inactive)
GI50 (MDA-N): > 100 µM (inactive)

Nc1ccc(-c2nc3ccc(Cc4ccc5nc(-c6ccc(N)cc6)oc5c4)cc3o2)cc1
GI50 (CCRF-CEM): > 100 µM (inactive)
GI50 (HOP-92): 47.4 µM (inactive)
GI50 (M14): 49.9 µM (inactive)
GI50 (KM12): > 100 µM (inactive)
GI50 (CAKI-1): > 100 µM (inactive)
GI50 (LOX IMVI): > 100 µM (inactive)
GI50 (MDA-MB-231): > 100 µM (inactive)
GI50 (TK-10): > 100 µM (inactive)
GI50 (MDA-MB-435): 82.4 µM (inactive)
GI50 (RPMI-8226): > 100 µM (inactive)
GI50 (UACC-62): > 100 µM (inactive)
GI50 (NCI/ADR-RES): > 100 µM (inactive)
GI50 (SK-OV-3): > 100 µM (inactive)
GI50 (HT-29): > 100 µM (inactive)
GI50 (HCT-116): > 100 µM (inactive)
GI50 (SW-620): > 100 µM (inactive)
GI50 (NCI-H460): > 100 µM (inactive)
GI50 (K562): 44.5 µM (inactive)
GI50 (786-0): > 100 µM (inactive)
GI50 (COLO 205): > 100 µM (inactive)
GI50 (HCT-15): > 100 µM
GI50 (MCF7): > 100 µM (inactive)
GI50 (SF-268): > 100 µM (inactive)
GI50 (SK-MEL-28): > 100 µM (inactive)
GI50 (SF-295): > 100 µM (inactive)
GI50 (OVCAR-8): > 100 µM (inactive)
GI50 (NCI-H522): > 100 µM (inactive)
GI50 (SR): 12.7 µM (inactive)
GI50 (U-251): > 100 µM (inactive)
GI50 (SK-MEL-2): > 100 µM (inactive)
GI50 (NCI-H23): > 100 µM (inactive)
GI50 (ACHN): > 100 µM (inactive)
GI50 (OVCAR-4): > 100 µM (inactive)
GI50 (MOLT-4): 67 µM (inactive)
GI50 (A549): > 100 µM (inactive)
GI50 (OVCAR-5): > 100 µM (inactive)
GI50 (SNB-19): > 100 µM (inactive)
GI50 (SF-539): > 100 µM (inactive)
GI50 (UACC-257): > 100 µM (inactive)
GI50 (SN12C): > 100 µM (inactive)
GI50 (RXF 393): > 100 µM (inactive)
GI50 (A498): > 100 µM (inactive)
GI50 (DU-145): > 100 µM (inactive)
GI50 (PC-3): > 100 µM (inactive)
GI50 (Malme-3M): 40 µM (inactive)
GI50 (NCI-H226): > 100 µM (inactive)
GI50 (HCC 2998): > 100 µM (inactive)
GI50 (UO-31): > 100 µM (inactive)
GI50 (MDA-N): > 100 µM (inactive)

COc1cc([C@@H]2c3cc4c(cc3[C@@H](Nc3ccc(NC(=O)c5cc([N+](=O)[O-])cn5C)cc3)[C@H]3COC(=O)[C@H]23)OCO4)cc(OC)c1O
GI50 (CCRF-CEM): < 0.01 µM (active)
GI50 (HOP-92): 0.132 µM (active)
GI50 (M14): 0.0731 µM (active)
GI50 (HL-60): 0.0176 µM (active)
GI50 (KM12): 0.22 µM (active)
GI50 (TK-10): 0.348 µM (active)
GI50 (UACC-62): 0.0828 µM (active)
GI50 (EKVX): 0.333 µM (active)
GI50 (IGROV-1): 0.173 µM (active)
GI50 (HT-29): 0.171 µM (active)
GI50 (HCT-116): 0.114 µM (active)
GI50 (SW-620): 0.135 µM (active)
GI50 (NCI-H460): < 0.01 µM (active)
GI50 (K562): 0.108 µM (active)
GI50 (786-0): 0.0491 µM (active)
GI50 (COLO 205): 0.254 µM (active)
GI50 (HCT-15): 0.365 µM
GI50 (MCF7): < 0.01 µM (active)
GI50 (SF-268): 0.191 µM (active)
GI50 (SK-MEL-28): 1.22 µM (inactive)
GI50 (OVCAR-8): 0.141 µM (active)
GI50 (T47D): 0.0266 µM (active)
GI50 (NCI-H522): 0.272 µM (active)
GI50 (SK-MEL-2): 1.21 µM (inactive)
GI50 (NCI-H23): 0.0385 µM (active)
GI50 (ACHN): 0.0213 µM (active)
GI50 (MOLT-4): < 0.01 µM (active)
GI50 (A549): < 0.0124 µM (active)
GI50 (OVCAR-5): 0.419 µM (active)
GI50 (SNB-19): 0.0538 µM (active)
GI50 (SNB-75): 0.0498 µM (active)
GI50 (OVCAR-3): 0.427 µM (active)
GI50 (SF-539): 0.0577 µM (active)
GI50 (UACC-257): 0.581 µM (active)
GI50 (RXF 393): 0.243 µM (active)
GI50 (DU-145): 0.0143 µM (active)
GI50 (PC-3): 0.188 µM (active)
GI50 (HCC 2998): 0.243 µM (active)
GI50 (UO-31): 0.244 µM (active)
GI50 (HOP-62): 0.0179 µM (active)

COc1cc2nc(N3CCN(C(=O)c4ccco4)CC3)nc(N)c2cc1OC [PRAZOSIN HYDROCHLORIDE]
GI50 (NCI-H23): 13.7 µM (inactive)
